Patent publication EP1160247A1, “6,5-Fused aromatic ring systems having enhanced phosphodiesterae IV inhibitory activity” (Euro-Celtique S.A., priority 2000, dated 2001)
pIC50: −log10 of the molar value.

Experiments:
PDE III = molecular target: T1, PDE III (Homo sapiens, UniProt Q14432); test: Type III PDE activity, hydrolysis of [3H]-cyclic AMP; type: biochemical; details: enzyme from human platelets; cyclic AMP 0.2 µM; 2.5% dimethyl sulfoxide
T1 construct: Fractions containing PDE III activity are pooled and dialyzed; from tissue; host or cells: human platelets (100,000 x g supernatant, DEAE-Trisacryl M fraction)
Method: The Type III PDE is isolated from human platelets using a procedure similar to that previously described by Weishaar, R.E.; Burrows, S.D.; Kobylarg, D.C., Quade, N.M.; Evans, D.B., Biochem. Pharmacol., 35:787, 1986. Briefly, 1-2 units of platelets are suspended in an equal volume of buffer (20 mM Tris-HCl, pH 7.5, containing 2 mM magnesium acetate, 1 mM dithiothreitol, and 5 mM Na2 EDTA). The protease inhibitor phenyl methyl-sulfonyl fluoride (PMSF) is also included in this buffer at a final concentration of 200 µM. The suspension is homogenized using a polytron and the homogenate centrifuged at 100,000 x g for 60 minutes. This and all subsequent procedures are performed at 0-4°C. The supernatant is then filtered through four layers of gauze and applied to a DEAE-Trisacryl M column, previously equilibrated with buffer B (20 mM Tris-HCl, pH 7.5, containing 1 mM magnesium acetate, 1 mM dithiothreitol and 200 µM PMSF). After application of the sample, the column is washed with several bed volumes of buffer B, after which the different forms of PDE are eluted from the column using two successive linear NaCl gradients (0.05-0.15 M, 300 ml total; 0.15-0.40 M, 200 ml total). Five milliliter fractions are collected and assayed for cyclic AMP and cyclic GMP PDE activity. Fractions containing PDE III activity are pooled and dialyzed overnight against 4 liters of buffer B. The dialyzed PDE III is then concentrated to 10% of the original volume, diluted to 50% with ethylene glycol monoethyl ether and stored at -20°C.
Enzyme activity is assessed by measuring the hydrolysis of [^3H]-cyclic AMP, as described by Thompson, W.J., Teraski, W.L., Epstein, P.N., Strada, S.J.: Adv. Cyclic Nucleotide Res. 10:69, 1979. The cyclic AMP concentration used in this assay is 0.2 µM, which approximates to the Km value. Protein concentration is adjusted to ensure that no more than 15% of the available substrate is hydrolyzed during the incubation period.
All test compounds are dissolved in dimethyl sulfoxide (final concentration of 2.5%).
The compounds are tested over concentration range: 0.1, 1, 10, 100 uM (n=1), and IC50 determinations are made using 5 appropriate concentrations (n=2).

PDE V = molecular target: T2, PDE V (Homo sapiens, UniProt O76074); test: Type V PDE activity, hydrolysis of [3H]-cyclic GMP; type: biochemical; details: enzyme from platelets; cyclic GMP 0.2 uM; 2.5% dimethyl sulfoxide
T2 construct: from tissue; host or cells: platelets (supernatant, DEAE-Trisacryl M fraction)
Method: Briefly, 1-2 units of platelets are suspended in an equal volume of buffer A (20 mM Tris-HCl, pH 7.5, containing 2 mM magnesium acetate, 1 mM dithiothreitol, and 5 mM Na2EDTA) using a polytron. The proteinase inhibitor phenylmethylsulfonyl fluoride (PMSF) are also included in this buffer at a final concentration of 200 uM. This and all subsequent procedures are performed at 0-4°C. The homogenate is then centrifuged at […] for 60 minutes. The supernatant is then removed and filtered through four layers of gauze and applied to a DEAE-Trisacryl M column. The column is washed with several bed volumes of buffer B (20 mM Tris-HCl, pH 7.5, containing 2 mM magnesium acetate, 1 mM diothiothreitol, and […] PMSF) and eluted by two successive linear NaCl gradients (0.05-0.15 M, 300 ml total; 0.15-0.40 M, 200 ml total). Five ml fractions are collected and assayed for cyclic AMP and cyclic GMP PDE activity. Fractions that contain PDE V are pooled and dialyzed overnight against 4 L of buffer C (20 mM Tris-HCl, pH 7.5, containing 2 mM magnesium acetate and proteinase inhibitors). The dialyzed PDE V is then concentrated to 10% of the original volume, diluted to 50% with ethylene glycol monoethyl ether and stored at -20°C. PDE V can typically be retained for up to four weeks with little or no loss of activity.
The reference Type V PDE inhibitor zaprinast is evaluated with each assay.

T1 sequence (Q14432 whole entry): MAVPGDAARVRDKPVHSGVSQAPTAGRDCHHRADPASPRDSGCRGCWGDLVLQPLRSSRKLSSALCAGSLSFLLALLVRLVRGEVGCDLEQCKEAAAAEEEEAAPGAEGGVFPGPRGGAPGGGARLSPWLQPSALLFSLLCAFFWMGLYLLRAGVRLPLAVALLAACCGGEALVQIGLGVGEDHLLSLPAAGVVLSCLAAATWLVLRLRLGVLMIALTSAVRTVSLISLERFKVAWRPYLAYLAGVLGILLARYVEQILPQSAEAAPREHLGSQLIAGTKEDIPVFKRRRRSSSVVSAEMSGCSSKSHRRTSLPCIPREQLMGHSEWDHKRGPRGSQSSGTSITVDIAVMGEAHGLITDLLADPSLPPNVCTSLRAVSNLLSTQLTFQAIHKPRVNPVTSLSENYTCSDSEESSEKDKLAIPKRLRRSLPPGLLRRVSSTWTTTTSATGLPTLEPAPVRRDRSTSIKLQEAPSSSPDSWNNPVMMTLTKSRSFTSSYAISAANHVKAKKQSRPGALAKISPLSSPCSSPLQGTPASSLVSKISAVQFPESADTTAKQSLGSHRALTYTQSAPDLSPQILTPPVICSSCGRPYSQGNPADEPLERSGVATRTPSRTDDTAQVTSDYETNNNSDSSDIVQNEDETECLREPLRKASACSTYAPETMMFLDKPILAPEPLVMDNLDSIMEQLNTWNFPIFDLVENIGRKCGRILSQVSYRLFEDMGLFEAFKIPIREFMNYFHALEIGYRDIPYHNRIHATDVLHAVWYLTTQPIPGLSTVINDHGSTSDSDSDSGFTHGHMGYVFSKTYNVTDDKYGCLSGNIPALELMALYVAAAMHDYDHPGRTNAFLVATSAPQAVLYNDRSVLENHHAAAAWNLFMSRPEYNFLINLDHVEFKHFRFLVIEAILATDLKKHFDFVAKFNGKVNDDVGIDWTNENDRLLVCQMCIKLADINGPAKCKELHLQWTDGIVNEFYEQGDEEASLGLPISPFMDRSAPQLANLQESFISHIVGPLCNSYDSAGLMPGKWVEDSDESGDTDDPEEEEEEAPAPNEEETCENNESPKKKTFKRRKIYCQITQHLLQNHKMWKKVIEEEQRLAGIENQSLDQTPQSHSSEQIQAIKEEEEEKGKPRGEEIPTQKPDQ

Structure (SMILES)	pIC50 (PDE III)	pIC50 (PDE V)
CC(C)(C)c1cc(Cc2nc3cc(Cl)cc(C#Cc4nccs4)c3o2)cc(C(C)(C)C)c1O [Example 3, 5-chloro-2-(3,5-di-t-butyl-4-hydroxy-benzyl)-7-(2-(2-thiazolyl)-ethynyl)-benzoxazole]	< 3.52	< 3.52
CC(C)(C)c1cc(Cc2nc3cc(Cl)cc(C#Cc4ccccn4)c3o2)cc(C(C)(C)C)c1O [Example 1, 5-chloro-2-(3,5-di-t-butyl-4-hydroxy-benzyl)-7-(2-(2-pyridyl)-ethynyl)-benzoxazole]	< 3.52	< 3.52
COc1ccc(C2CNC(=O)C2)cc1OC1CCCC1 (stereo not shown) [Rolipram, reference compound]	3.21	
CC(C)(C)c1cc(Cc2nc3cccc(C#Cc4ccccn4)c3o2)cc(C(C)(C)C)c1O [Example 2, 2-(3,5-di-t-butyl-4-hydroxy-benzyl)-7-(2-(2-pyridyl)-ethynyl)-benzoxazole]	< 3.52	4.45
